Laboratory results reported in US20110033883A1, “IMAGING DYES AND USE THEREOF” (priority 2007, published 2011).
Ru(bpy)2(pic) = [Ru(bpy)2(piCH2)]2+ complex, attached to the peptide through a hexyl spacer; Ahx = NCCCCCC(=O)O

Experiments:
[1] = pH titration, ground-state pKa (UV/vis absorption, Henderson-Hasselbalch fit); type: physicochemical
Experimental: ^1H NMR spectra were recorded on a Bruker Advance series 400 MHz NMR spectrometer. The NMR titration experiments were performed following a previously published protocol (Charbonnier and Penades). Mass spectra were acquired using a positive ion mode on a Bruker LC/MS Esquire. Electronic absorption spectra were measured on a Shimadzu 3500 UV-VIS/NIR spectrophotometer. Cyclic voltammetry was carried out using a CH Instruments CH602 electrochemical workstation. A conventional three-electrode cell was used, employing glassy carbon as working, Ag/AgCl as reference or Ag/AgNO3 in acetonitrile, and Pt wire as counter electrodes. Electrochemistry was conducted in water and acetonitrile respectively with 0.1 M phosphate buffer or tetrabutylammonium tetrafluoroborate (TBABF4) as supporting electrolyte under an N2 atmosphere. pH titrations were performed in the pH range 0.5-12. The pH was adjusted by adding aqueous solutions of NaOH or HClO4.
(§1) The pH was adjusted with H2SO4 (Sigma-Aldrich) and KOH (Sigma-Aldrich) and measured with a pH meter. UV/vis absorption spectra during the pH titration experiment were corrected for change in volume.
UV/vis absorption titration curves were fitted with a modified Henderson-Hasselbalch equation which was obtained using Beer-Lambert's law to express the concentration, FIG. 2(b) For fitting the fluorescence titration curve it was assumed that the average lifetime goes linear with the ratio of the two species in equilibrium at the certain pH.
At a shorter wavelength the ππ* transitions centred at the ligands are found: around 350 nm the ππ* transition at the pic ligand, and around 280 nm at the bipyridine ligands. […] The increasing absorption with increasing pH at 350 nm is plotted in FIG. 13B. Fitting this curve with a modified Henderson-Hasselbalch equation results in a pKa1 of 1.72±0.07 and pKa2 of 8.16±0.03. As expected the pH dependence of the other bands is rather minor.

[2] = pH dependence of resonance Raman peak ratios; type: physicochemical; settings: ratio of peaks at 1575 and 1317 cm^-1, 458 nm excitation
Experimental: (§2) Resonance Raman spectroscopy was performed on a Horiba Jobin Yvon HR800UV confocal microscope using an Argon ion Laser (458 nm or 514 nm) or a Helium-Neon (HeNe) laser (633 nm) as the exciting wavelength. Ten spectral acquisitions were accumulated and each acquisition was two seconds in length. Steady-state emission spectra were recorded on a Cary Eclipse Fluorescence spectrophotometer, and luminescence lifetimes were obtained using a Picoquant Fluotime 100 TCSPC system exciting at 470 nm and detecting at 600 nm using a narrow band pass dielectric filter. Quantum yields were measured using the comparative method described by Williams et al. In quenching studies, the luminophore/quencher concentrations were corrected for dilution.
To evaluate the pH dependence of the resonance Raman data peak ratios were calculated with Labspec5 software. A baseline was drawn along the base of the peak and the area was calculated. Regions for the peaks were 1700 to 1400 cm^−1. The ratio of the peaks for the different protonation states […] 5 replica measurements were recorded for each pH and averaged.
As the pH changes, the pic moiety can be protonated or deprotonated, while the bpy moieties should stay mainly unaffected by changes in pH. […]

[3] = tested on: human blood platelets; test: Photobleaching under continuous irradiation at 458 nm of dye-labelled human blood platelets; type: cell-based; settings: identical conditions
Excerpt: Some of the advantages associated with the invention may include: • The dye conjugates described are long-lived and environmentally sensitive. The sensitivity of the dye conjugates can be tailored, e.g. to oxygen partial pressure, pH, water content etc., by altering the ligands and/or the metal ion of the dye conjugate. • Photobleaching: bleaching experiments, for example the data presented in FIG. 10, are a measure of the photostability of the dye conjugate under the types of continuous irradiation required for imaging. […] For example a ruthenium-polypyridyl complex covalently bound to an octa arginine peptide required approximately 20 minutes continuous irradiation for the dye to bleach to 50% of its initial intensity. […] The dye conjugates described herein provide a much greater acquisition time which is a significant advantage to the microscopist/microbiologist. • The synthetic yields for coupling of the Rupic unit to amine functionalities are high. The dye conjugates are functionalised with a single, accessible group, allowing unequivocal reaction with nucleophilic functions on peptides or proteins. […] The dye conjugates are easily synthetically modified to change colour, lifetime, and environmental sensitivity and are highly resistant to photobleaching.
FIG. 10 is a graph showing a photobleaching experiment. […]

[4] = Luminescence intensity as a function of pH, excited state pKa; type: physicochemical; settings: excitation at isosbestic point, luminescence intensity vs pH
Experimental: as §2, §1
The luminescence wavelength and its intensity are pH dependent. While the emission maximum at pH 7 is at 608 nm, it shifts to higher wavelength with increasing and decreasing pH (λmax (pH 1.3)=623 nm; λmax (pH 11)=616 nm). When the pic ligand is in its neutral state, the luminescence is very bright (Φ=0.06), about 30% more intense than the one of [Ru(bpy)3]^2+. […]

[5] = Oxygen quenching of luminescence (Stern-Volmer); type: physicochemical
Experimental: Different oxygen concentrations were adjusted by streaming various O2—N2-mixtures through the solution until equilibrium was reached. The oxygen concentration was measured with an optical O2 electrode (Visiferm DO120, Hamilton). The fluorescence lifetime of the equilibrated dye solutions was measured in a closed-system flow cell.
In air saturated PBS solutions the lifetime drops down to 540 ns when the pic ligand is neutral, and even down to 350 ns, when the pic moiety is deprotonated. Stern-Volmer plots are linear up to air saturated solutions and then start levelling of. The Stern-Volmer quenching constants range actually vary very little with pH 2100 M^−1 for pH 10 to around 2900 M^−1 when the pic moiety is in its neutral state. The corresponding bimolecular rate constants vary between around […] when the pic moiety is deprotonated to […] when the pic moiety is in its neutral state, which is essentially the same within experimental error. This means that within the limited range of the cellular environment the O2 concentration within a cell can be assessed independently of pH using this dye.

[6] = tested on: human blood platelets; test: Fluorescence microscopy of human blood platelets incubated with dye conjugates; type: cell-based
Experimental: Human Blood Platelets were supplied by Niamh Moran and Dermot Kenny and prepared as described Moran et al.
Fluorescence microscopy was performed on human blood platelets incubated in the presence of Ru-Ahx-R5 and Ru-Ahx-R8. […] The process is largely irreversible, removing and washing cells, and resuspending in buffer results in less than 20% loss of emission intensity from the cell. The fluorescence microscopy pictures show intense, long-lived luminescence originating from the platelet; the wavelength of which (around 620 nm) can be assigned to the Ruthenium centres.

[7] = tested on: Sp2/0-Ag 14 myeloma cells; test: Confocal luminescence imaging, incorporation and localization in myeloma cells (DiOC6(3) counterstain); type: cell-based, mouse
Experimental: (§3) Sp2/0-Ag 14 myeloma cells (ATCC number CRL-1581™) were obtained from the ATCC Cell Biology Collection (United Kingdom). Cells were grown in Dulbecco's modified Eagle's medium (Sigma-Aldrich) supplemented with 10% foetal calf serum (Gibco Invitrogen) and 1% L-glutamine (Gibco Invitrogen) at 37° C. and 5% CO2. Cells were harvested after growing for 2 days. The viability was ensured by testing them in a trypan blue assay. In a usual sample less than 1% of the cells were dead. The growth medium was removed by centrifuging the cells at 2000 rpm for 2 min in an Eppendorff centrifuge, washed twice and resuspended in PBS buffer.
To identify where the Ru dye [Ru(bpy)2(PIC-arg8)]^2+ is localizing inside the cell, cells were counterstained with two commercial dyes. Sytox green (Invitrogen) which localizes inside the nucleus; and DiOC6(3) (3,3′-dihexyloxacarbocyanine iodide, Invitrogen) which selectively stains mitochondria and at higher concentration other internal membranes, such as the endoplasmatic reticulum, of living cells. Both dyes can be excited with the 458 nm line of an argon ion laser used for excitation of the [Ru(bpy)2(pic-R8)]^n+ dye, however, their fluorescence is in the green (around 500 nm), and therefore could be easily spectrally separated from the fluorescence of the Ru complex. […]
For the fluorescence and fluorescence lifetime experiments 100 μl aliquots of washed myeloma cells were resuspended in PBS buffer (pH 7.4) and incubated with the 3 μl of the Ru-octopeptide (1.2 mM), resulting in a final dye concentration of 3.5×10^−5 M.
The luminescence images of myeloma cells were recorded with a Zeiss LSM510 Meta confocal microscope, using a 63× oil immersion objective (NA 1.4). […] The luminescence from the Ru complexes was collected using a longpass filter at 560 nm. When Sytox green and/or DiOC6(3) were localised in the same cell, the luminescence from the Ru-dye was collected behind a 615 nm longpass filter, while the Sytox green and DiOC6(3) fluorescence was collected with a 465-510 nm bandpass filter in another channel, or by using the meta option of the instrument.

[8] = tested on: Sp2/0-Ag 14 myeloma cells; test: Sytox green counterstain for cell viability; type: cell-based, mouse; settings: over 2 hours
Experimental: as §3
To identify where the Ru dye [Ru(bpy)2(PIC-arg8)]^2+ is localizing inside the cell, cells were counterstained with two commercial dyes. […] Both dyes can be excited with the 458 nm line of an argon ion laser used for excitation of the [Ru(bpy)2(pic-R8)]^n+ dye, however, their fluorescence is in the green (around 500 nm), and therefore could be easily spectrally separated from the fluorescence of the Ru complex. […]
The luminescence images of myeloma cells were recorded with a Zeiss LSM510 Meta confocal microscope, using a 63× oil immersion objective (NA 1.4). […] The luminescence from the Ru complexes was collected using a longpass filter at 560 nm. […]

[9] = tested on: mouse SP2/0 myeloma cells; test: Resonance Raman mapping of myeloma cells; type: cell-based
Experimental: as §2
For the fluorescence and fluorescence lifetime experiments 100 μl aliquots were used and incubated with the 3 μl of the Ru-octopeptide (1.2 mM), resulting in a final dye concentration of 3.5×10^−5 M. If only resonance Raman experiments were performed, the cells were incubated in the medium with dye for 15 minutes prior to the washing step.
The resonance Raman maps of the stained myeloma cells were analyzed using the modelling option implemented in the LabSpec software. A model with 4 components was creating, grouping together similar spectra in one component (background, where there is no dye/no cell, outer cell (membrane), cytoplasm and nucleus). […]

[10] = tested on: bovine aortic epithelial (BAE) cells; test: Confocal luminescence imaging of bovine aortic epithelial (BAE) cells; type: cell-based; settings: BAE cells in PBS buffer, 22° C., excitation 458 nm
Experimental: Bovine aortic endothelium cells were supplied by Dr PM Cummins and cultured as described in Colgon et al.
Here it has been used to image emission spectrum (left) and a confocal image at a excitation wavelength of 458 nm (right) of bovine aortic epithelial (BAE) cells. The dyes were incubated at 22° C. with BAE cells in PBS buffer.

[11] = absorption at 350 nm vs pH, modified Henderson-Hasselbalch fit

What does the source list for [Ru(bpy)2(PicH2)](PF6)2 [[Ru-LH]^2+]?
pKa of ionisable site at the imidazole (higher) [1]: 8.5; pKa of ionisable site at the imidazole (lower) [1]: 1.6; pKa from ratio of resonance Raman peaks [2]: 8.5±0.2

With “[Ru(bpy)2(PicH-R8)]^n+: ruthenium centre with two bipyridine ligands and one picH ligand; octaarginine coupled to pic carboxy end via Ahx spacer, amide linkage ({(Ru(bpy)2(picH))-Ahx}-RRRRRRRR-NH2; also: Ru(bpy)2 picH ruthenium complex attached via Ahx spacer)” as the substance, how does the “continuous irradiation time for the dye to bleach to 50% of its initial intensity” value [3] read?
Its value is “approximately 20 minutes”.

What about the pKa1 [1, 11] of the same substance?
The pKa1 was 1.72±0.07.

And the pKa2 [1, 11]?
The pKa2 was 8.16±0.03.

And the “excited state pKa2*” value [4]?
The value was 8.1±0.2.

What about the “bimolecular rate constant of oxygen quenching” value ([5]; pic moiety deprotonated) of the same substance?
The value was “around 3.6×10^−9 M^−1 s^−1”.

What about the “bimolecular rate constant of oxygen quenching” value ([5]; pic moiety in its neutral state) of the same substance?
The value was 3e-09 M⁻¹ s⁻¹.

What about the “loss of emission intensity from the cell after removing, washing and resuspending in buffer” value [6] of the same substance?
The value was “less than 20%”.

And the “transport across the platelet membrane” value ([6]; fluorescence microscopy)?
Its value is “transported through the cells membrane to accumulate intracellularly”.

And the “incubation time after which dye localises in the nucleus” value [7]?
The value was over 40 min.

And the “time until penetration into the cells is complete” value ([7]; 3.5×10^−5 M dye)?
The value was 15 to 20 min.

What about the “preference for mitochondria (DiOC6(3) counterstain)” value ([7]; 20 mins incubation) of the same substance?
Its value is “no special preferences for mitochondria”.

And the “cell viability (Sytox green exclusion)” value [8]?
Its value is “did not kill the cells”.

And the “distribution of the dye inside the cell (Raman map, band at 1487 cm^−1)” value ([9]; myeloma cell incubated for 15 min)?
The value was “distributed throughout the cytoplasm, with less dye in the nucleus”.

For “[Ru(dppz)2(PicH2)]ClO4 [[Ru(dppz)2PICH2]^2+]”, which “entry into the cell (resonance Raman imaging)” value ([9]; mouse SP2/0 myeloma cells, pH 7.4 PBS, cells washed) is on record?
The value was “only interacted with the membrane but did not cross it”.

Which “localisation of the dye in the cells (luminescence image)” value [10] does the source give for “[Ru(bpy)2(pic-KVG)]^n+: [Ru(bpy)2(piCH2)]^2+ attached through a hexyl spacer to KVGFFKR-NH2 (SEQ ID No. 20) ({Ru(bpy)2(pic)-Ahx}-KVGFFKR-NH2; also: ruthenium complex, charge n+)” here?
The value was “concentrates in the membrane”.
